Reference: PubChem BioAssay AID1189 (EPA DSSTox, 2008)
Activity calls are given as the source filed them.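 Rule for the calls: active = a tumor-causing dose value with its tumor site reported for any sex and species group of a rodent or other animal cancer study; inconclusive = only studies judged inadequate by the national testing program; inactive = tested in at least one study, none positive.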

Experiment: DSSTox (CPDBAS) Carcinogenic Potency Database Summary SingleCellCall Results
Settings: animal chronic carcinogenicity bioassays, CPDB summary call
Description: The Carcinogenic Potency Database (CPDB) is a unique and widely used international resource of the results of over 6500 chronic, long-term animal cancer tests on over 1500 chemical substances. The CPDB provides easy access to the bioassay literature, with qualitative and quantitative analyses of both positive and negative experiments that have been published over the past 50 years in the general literature and by the National Cancer Institute/National Toxicology Program. The CPDB standardizes the diverse literature of cancer bioassays that vary widely in protocol, histopathological examination and nomenclature, and in the published author's choices of what information to provide in their papers. Results are reported in the CPDB for tests in rats, mice, hamsters, dogs, and nonhuman primates, and are based on the most positive result among all experiments for each sex-species. The DSSTox CPDBAS (all species) file incorporates data from the CPDB Summary Tables for the full list of over 1500 chemical substances tested in at least one species. A summary SingleCellCall, based on experimental bioassay results of one or more species, is provided for the entire DSSTox CPDBAS file (see Source URL).
An assignment of categorical carcinogenic activity based on minimal evidence for or against activity. […] Associated TD50 values and tumor site details for the relevant species/sex experiment supporting this overall CPDBAS SingleSiteCall are provided in the full CPDBAS DSSTox file (see Comment) and the corresponding CPDBAS Species Bioassay in PubChem.

Compound | outcome
O=P(OC(CCl)CCl)(OC(CCl)CCl)OC(CCl)CCl | active
c1ccoc1 | active; inactive
CC[C@H]1OC(=O)C[C@@H](O)[C@H](C)[C@@H](O[C@@H]2O[C@H](C)[C@@H](O[C@H]3C[C@@](C)(O)[C@@H](O)[C@H](C)O3)[C@H](N(C)C)[C@H]2O)[C@@H](CC=O)C[C@@H](C)C(=O)/C=C/C(C)=C/C1CO[C@@H]1O[C@H](C)[C@@H](O)[C@@H](OC)[C@H]1OC (some centres not stated) | inactive
O=C1O[C@H]([C@@H](O)CO)C(O)=C1O | inactive
C[C@]12C=CC(=O)C=C1CC[C@@H]1[C@@H]2[C@@H](O)C[C@@]2(C)[C@H]1CC[C@]2(O)C(=O)CO | active
CC(=O)CN(CC(C)=O)N=O | active
ClC(Cl)C(Cl)Cl | active
O=C1CCCO1 | inactive
O=C(O)c1cccnc1 | inactive
O=C(O)C1[O][Sb]2[O]C(=O)C([O]2)C(C(=O)O)[O][Sb]2[O]C(=O)C1[O]2 (configuration not stated) | inactive
CCCCCN(N=O)C(=N)N[N+](=O)[O-] | inactive
CC1=CC(C)(C)N(N=O)c2ccccc21 | active
NCCCCCCCCCCC(=O)O | active
CC(C)[N+](=O)[O-] | inactive; active
CCn1c2ccccc2c2cc(N)ccc21 | active
CCC[CH2][Sn]([CH2]CCC)([O]C(C)=O)[O]C(C)=O | inactive
CCOc1nc2cccc(C(=O)OC(C)OC(=O)OC3CCCCC3)c2n1Cc1ccc(-c2ccccc2-c2nn[nH]n2)cc1 (configuration not stated) | inactive
CN(C#N)N=O | active
Cc1cccc2cccnc12 | inactive
CCCCCN(N=O)C(N)=O | active
CC(=O)C(N=Nc1ccc(-c2ccc(N=NC(C(C)=O)C(=O)Nc3ccccc3)c(Cl)c2)cc1Cl)C(=O)Nc1ccccc1 (configuration not stated) | inactive
O=C(O)c1ccncc1 | inactive

Compound | outcome
C=CC(=O)O | inactive; active
FC(F)(F)CCl | active; inactive
COc1ccc([N+](=O)[O-])cc1N=Nc1c(O)c(C(=O)Nc2cccc([N+](=O)[O-])c2)cc2ccccc12 | inactive; active
CC1CC(=O)O1 (configuration not stated) | active
CN=C(NC#N)NCCSCc1nc[nH]c1C | inactive; active
Cn1cc[nH]c1=S | active; inactive
Cn1cc(OCC(O)CNC(C)(C)C)c2ccccc2c1=O (configuration not stated) | inactive; active
C=CCN(CC(O)CO)N=O (configuration not stated) | active
ClCOCCl | active; inactive
COc1cc(/C=C/C(=O)CC(=O)/C=C/c2ccc(O)c(OC)c2)ccc1O | inactive
C/C=C(/C)C(=O)O[C@H]1CCN2CC=C(COC(=O)[C@](O)([C@H](C)OC)C(C)(C)O)[C@H]12 | active
Cc1cccn2c1nc1ccc(N)nc12 | active
Cc1cc(O)c2c(c1)C(=O)c1cc(O)cc(O)c1C2=O | inactive; active
Cc1ccc(O)c(O)c1 | active; inactive
CCCCN(N=O)C(N)=O | active
ClC1=C(Cl)C2(Cl)C3C(Cl)OC(Cl)C3C1(Cl)C2(Cl)Cl (configuration not stated) | inactive
CN(C)CCN(Cc1cccs1)c1ccccn1 | active
O=[N+]([O-])c1c(Cl)c(Cl)c(Cl)c(Cl)c1Cl | active
OCCOCCO | active
CCCCNC(N)=O | inactive
CC(C)C[C@H]1C(=O)N2CCC[C@H]2[C@]2(O)O[C@](NC(=O)[C@@H]3C=C4c5cccc6[nH]c(Br)c(c56)C[C@H]4N(C)C3)(C(C)C)C(=O)N12 | active
NNC(N)=S | inactive

Compound | outcome
O=C(O)COc1cc(Cl)c(Cl)cc1Cl | inactive
C=CC(=C)C | active
CC1SC(C)N(N=O)C(C)S1 (configuration not stated) | active
CN(C)[C@@H]1C(=O)C(C(N)=O)=C(O)[C@@]2(O)C(=O)C3=C(O)c4c(O)cccc4[C@@](C)(O)[C@H]3C[C@@H]12 | inactive
COc1ccc(C(c2ccc(OC)cc2)C(Cl)(Cl)Cl)cc1 | inactive; active
CS(=O)(=O)OCCCCOS(C)(=O)=O | inactive
O=[N+]([O-])c1ccc(Cl)cc1 | active
NNC(=O)c1ccncc1 | active; inactive
BrCCBr | active; inactive
ClC(Cl)=C(Cl)Cl | active; inactive
CCCCC(CC)COP(=O)(OCC(CC)CCCC)OCC(CC)CCCC (configuration not stated) | active
CCOC(N)=O | active; inactive
CC(CN1CC(=O)NC(=O)C1)N1CC(=O)NC(=O)C1 (configuration not stated) | active
C[C@]12CC[C@@H]3c4ccc(OC(=O)Cc5ccc(N(CCCl)CCCl)cc5)cc4CC[C@H]3[C@@H]1CC[C@@H]2OC(=O)Cc1ccc(N(CCCl)CCCl)cc1 | active
COc1c(Cl)c(Cl)c([N+](=O)[O-])c(Cl)c1Cl | inactive
O=S(=O)([O-])[O-].[O]=[V+2] | inactive
O=c1cc(CO)occ1O | active
O=NN1CCOC1=O | active; inactive
CCCCOC(=O)c1ccc(O)cc1 | inactive; active
CN(C)CCN(Cc1ccsc1)c1ccccn1 | inactive; active
O.O.O.O.O.O.O.O.O=S(=O)([O-])[O-].O=S(=O)([O-])[O-].O=S(=O)([O-])[O-].[Cd+2].[Cd+2].[Cd+2] | inactive
COc1ccc(CCN2CCC(Nc3nc4ccccc4n3Cc3ccc(F)cc3)CC2)cc1 | inactive

Compound | outcome
Nc1ccc(N=Nc2ccc(-c3ccc(N=Nc4c(S(=O)(=O)O)cc5cc(S(=O)(=O)O)c(N=Nc6ccccc6)c(O)c5c4N)cc3)cc2)c(N)c1 | active; inactive
O=C1C(c2[nH]c3ccc(S(=O)(=O)O)cc3c2O)=Nc2ccc(S(=O)(=O)O)cc21 | inactive; active
NC1=NC(=O)C(c2ccccc2)O1 (configuration not stated) | inactive; active
Clc1cccc(-c2ccc(Cl)c(Cl)c2Cl)c1Cl | active
O=c1c(CO)c/c(=N/Nc2ccc(S(=O)(=O)O)c3ccccc23)c(=O)/c1=N/Nc1ccc(S(=O)(=O)O)c2ccccc12 | inactive
Nc1ccc(NC(=O)c2ccc(N)cc2)cc1 | inactive; active
CCC1(CCC(C)C)C(=O)NC(=O)NC1=O | inactive
NC(=O)/C(=C\c1ccc([N+](=O)[O-])o1)c1ccco1 | active
CC(N)=S | active
Cc1cccc(N)c1 | active; inactive
Cc1c(C)c2c(c(C)c1O)CCC(C)(CCCC(C)CCCC(C)CCCC(C)C)O2 (configuration not stated) | inactive
COc1cc(/C=N/NC(=O)c2ccncc2)ccc1O | active; inactive
NCCc1ccc(O)c(O)c1 | inactive
O=NN1CCN(N=O)CC1 | active; inactive
CN(N=O)c1ccc(N=O)cc1 | active
ClCC(Cl)Cl | active
N[C@@H](CCC(=O)NNc1ccc(CO)cc1)C(=O)O | inactive
CC(=O)Nc1cccc2c1Cc1ccccc1-2 | inactive; active
CC(C)CON=O | active
Nc1cc([N+](=O)[O-])ccc1O | active
CCCCCCCCCCCCCCCC(=O)OC/C=C(C)/C=C/C=C(C)/C=C/C1=C(C)CCCC1(C)C | inactive
